Reference: ChEMBL document CHEMBL4831511, “Fluorovinylsulfones and -Sulfonates as Potent Covalent Reversible Inhibitors of the Trypanosomal Cysteine Protease Rhodesain: Structure-Activity Relationship, Inhibition Mechanism, Metabolism, and In Vivo Studies” (J Med Chem, 2021)
pEC50, pKi: −log10 of the molar value. Calls of active or inactive are those of the source. The calls are words filed in the database; no cut-off is given here.

Key:
[1] = target: T1, Rhodesain (Trypanosoma brucei rhodesiense, UniProt Q95PM0); experiment: Inhibition of Trypanosoma brucei rhodesain assessed as fluorescence using Cbz-Phe-Arg-AMC as substrate measured at second inhibition step by fluorometric enzyme assays
T1 sequence (Q95PM0 whole entry): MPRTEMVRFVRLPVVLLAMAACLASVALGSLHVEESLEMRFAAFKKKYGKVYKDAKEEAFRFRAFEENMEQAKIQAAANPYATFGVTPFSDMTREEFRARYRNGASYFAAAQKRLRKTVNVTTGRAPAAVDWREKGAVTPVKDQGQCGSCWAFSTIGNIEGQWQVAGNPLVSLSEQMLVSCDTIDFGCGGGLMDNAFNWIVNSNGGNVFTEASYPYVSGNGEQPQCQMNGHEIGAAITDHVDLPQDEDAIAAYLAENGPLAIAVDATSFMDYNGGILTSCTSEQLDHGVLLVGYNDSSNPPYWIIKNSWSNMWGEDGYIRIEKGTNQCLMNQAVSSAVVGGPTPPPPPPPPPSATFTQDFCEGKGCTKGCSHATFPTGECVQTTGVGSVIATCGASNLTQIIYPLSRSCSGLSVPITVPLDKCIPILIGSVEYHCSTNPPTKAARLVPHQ

[2] = target: Rhodesain (Trypanosoma brucei rhodesiense) (UniProt Q95PM0); experiment: Inhibition of Trypanosoma brucei rhodesain assessed as rate constant of association using Cbz-Phe-Arg-AMC as substrate by fluorometric enzyme assays
Chain of Rhodesain (Trypanosoma brucei rhodesiense) (Q95PM0 1-450): as the sequence (Q95PM0 whole entry) above

[3] = target: Rhodesain (Trypanosoma brucei rhodesiense) (UniProt Q95PM0); experiment: Inhibition of Trypanosoma brucei rhodesain assessed as rate constant of dissociation of the final complex using Cbz-Phe-Arg-AMC as substrate by fluorometric enzyme assays
[4] = target: T1, Rhodesain; experiment: Inhibition of Trypanosoma brucei rhodesain assessed as fluorescence using Cbz-Phe-Arg-AMC as substrate measured using Dixon equation by fluorometric enzyme assays
[5] = tested on: J774.1; experiment: Cytotoxicity against mouse J774.1 cells by Alamar blue assay; type: functional
[6] = tested on: Trypanosoma brucei brucei; experiment: Antiprotozoal activity against Trypanosoma brucei brucei BS449 assessed as luminescence incubated for 24 to 48 hrs by ATPlite assay; type: functional, organism-based
[7] = tested on: HeLa; experiment: Cytotoxicity against human HeLa cells by Alamar blue assay; type: functional
[8] = target: T2, Procathepsin L (Homo sapiens, UniProt P07711); experiment: Inhibition of human liver CatL assessed as fluorescence using Cbz-Phe-Arg-AMC as substrate measured at second inhibition step by fluorometric enzyme assays
T2 sequence (P07711 whole entry): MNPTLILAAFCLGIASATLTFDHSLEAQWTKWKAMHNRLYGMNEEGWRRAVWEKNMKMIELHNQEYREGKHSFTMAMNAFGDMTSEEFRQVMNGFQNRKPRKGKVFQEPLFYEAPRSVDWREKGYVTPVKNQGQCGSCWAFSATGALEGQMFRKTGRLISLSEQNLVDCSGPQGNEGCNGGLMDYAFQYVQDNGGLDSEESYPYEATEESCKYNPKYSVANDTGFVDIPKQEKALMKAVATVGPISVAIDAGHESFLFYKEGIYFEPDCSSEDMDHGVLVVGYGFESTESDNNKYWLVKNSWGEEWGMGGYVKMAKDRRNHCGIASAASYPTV

[9] = target: T3, Cathepsin B (Homo sapiens, UniProt P07858); experiment: Inhibition of human liver CatB assessed as fluorescence using Cbz-Phe-Arg-AMC as substrate at 11 uM by fluorometric enzyme assays
[10] = target: Rhodesain (Trypanosoma brucei rhodesiense) (UniProt Q95PM0); experiment: Binding affinity to Trypanosoma brucei rhodesain assessed as protein-ligand adducts by MALDI-TOF MS analysis
[11] = target: Proteasome Macropain subunit (Homo sapiens) (UniProt P49721); experiment: Inhibition of trypsin-like activity of human 20S proteasome at 11 uM using boc-Leu-Arg-Arg-AMC as fluorogenic substrate by microplate reader relative to control
Chain of Proteasome Macropain subunit (Homo sapiens) (P49721 whole entry): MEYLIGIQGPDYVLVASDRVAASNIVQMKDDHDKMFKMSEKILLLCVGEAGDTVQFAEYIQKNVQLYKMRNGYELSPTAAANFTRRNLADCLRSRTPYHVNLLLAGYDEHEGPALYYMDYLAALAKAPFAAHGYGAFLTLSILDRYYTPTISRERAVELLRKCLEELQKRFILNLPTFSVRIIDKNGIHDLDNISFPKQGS

[12] = tested on: Dengue virus; experiment: Inhibition of Dengue virus NS2B-NS3 protease assessed as fluorescent emission using boc-Gly-Arg-Arg-AMC at 11 uM by microplate reader relative to control
[13] = target: T3, Cathepsin B; experiment: Inhibition of human liver CatB assessed as fluorescence using Cbz-Phe-Arg-AMC as substrate by fluorometric enzyme assays
[14] = species: Homo sapiens; experiment: Inhibition of alpha-chymotrypsin-like activity of human 20S proteasome at 11 uM using Succ-Leu-Leu-Val-Tyr-AMC as fluorogenic substrate by microplate reader relative to control
[15] = target: T2, Procathepsin L; experiment: Inhibition of human CatL assessed as fluorescence using Cbz-Phe-Arg-AMC as substrate measured using Dixon equation by fluorometric enzyme assays; set-up: species or system Liver
[16] = tested on: cathepsin L (CatL) versus rhodesain; experiment: Selectivity index, ratio of Ki for human liver CatL to Trypanosoma brucei rhodesain; details: read-out: Selectivity Index
[17] = species: Homo sapiens; experiment: Inhibition of caspase-like activity of human 20S proteasome at 11 uM using Cbz-Leu-Leu-Glu-AMC as fluorogenic substrate by microplate reader relative to control

Cc1cccc(C[C@H](NC(=O)c2ccc3c(c2)OCCO3)C(=O)N[C@H](/C=C(\F)S(=O)(=O)Cc2ccccc2)CCc2ccccc2)c1
pKi [1]: 7.04

Cc1cccc(C[C@H](NC(=O)c2cc(F)cc(F)c2)C(=O)N[C@H](/C=C(\F)S(=O)(=O)Oc2ccccc2)CCc2ccccc2)c1
K [2]: 0.055 s⁻¹
K [3]: 0.01 s⁻¹
pKi [4]: 7.68
pKi [1]: 6.82

CN1CCN(C(=O)N[C@@H](Cc2ccccc2)C(=O)N[C@H](/C=C/S(=O)(=O)c2ccccc2)CCc2ccccc2)CC1 [K-777]
CC50 [5]: 41000 nM
pEC50 [6]: 6.74
CC50 [7]: > 10000 nM

O=C(N[C@@H](Cc1ccccc1)C(=O)N[C@H](/C=C(\F)S(=O)(=O)Cc1ccccc1)CCc1ccccc1)c1cc(F)cc(F)c1
pKi [1]: 6.91

O=C(N[C@@H](Cc1ccccc1)C(=O)N[C@H](/C=C(\F)S(=O)(=O)Cc1ccccc1)CCc1ccccc1)c1ccncc1
pKi [8]: 6.65
pKi [1]: 7.28
inhibition [9]: 44%

O=C(N[C@@H](Cc1ccccc1)C(=O)N[C@H](/C=C(/F)S(=O)(=O)Oc1ccccc1)CCc1ccccc1)c1ccncc1
pKi [1]: 6.28
Activity [10]: Active

O=C(N[C@@H](Cc1ccccc1)C(=O)N[C@H](/C=C(\F)S(=O)(=O)Oc1ccccc1)CCc1ccccc1)c1ccncc1
inhibition [11]: inactive
inhibition [12]: inactive
pKi [13]: 5.77
K [2]: 0.055 s⁻¹
inhibition [14]: 11%
pKi [15]: 7.22
selectivity ratio [16]: 4
pEC50 [6]: 5.32
CC50 [7]: > 100000 nM
K [3]: 0.01 s⁻¹
inhibition [17]: 22%
pKi [4]: 7.82
pKi [8]: 6.59
pKi [1]: 7.01
Activity [10]: Active

Cc1ccc(C[C@H](NC(=O)c2ccncc2)C(=O)N[C@H](/C=C/S(=O)(=O)Oc2ccccc2)CCc2ccccc2)cc1
pKi [1]: 9.35

Cc1ccc(C[C@H](NC(=O)c2cc(F)cc(F)c2)C(=O)N[C@H](/C=C(\F)S(=O)(=O)c2ccccc2)CCc2ccccc2)cc1
pKi [1]: 7.00

Cc1cccc(C[C@H](NC(=O)c2cc(F)cc(F)c2)C(=O)N[C@H](/C=C(\F)S(=O)(=O)c2ccccc2)CCc2ccccc2)c1
pKi [1]: 6.48

O=C(N[C@@H](Cc1ccccc1)C(=O)N[C@H](/C=C(\F)S(=O)(=O)c1ccccc1)CCc1ccccc1)c1cc(F)cc(F)c1
pKi [1]: 6.46

Cc1ccc(C[C@H](NC(=O)c2cc[n+]([O-])cc2)C(=O)N[C@H](/C=C/S(=O)(=O)Oc2ccccc2)CCc2ccccc2)cc1
pKi [1]: 8.82

Cc1cccc(C[C@H](NC(=O)c2ccncc2)C(=O)N[C@H](/C=C(\F)S(=O)(=O)c2ccccc2)CCc2ccccc2)c1
pKi [8]: 7.31
pKi [1]: 7.60

O=C(N[C@@H](Cc1ccccc1)C(=O)N[C@H](/C=C(\F)S(=O)(=O)Oc1ccccc1)CCc1ccccc1)OCc1ccccc1
pKi [1]: 6.80
Activity [10]: Active

O=C(N[C@H](/C=C(\F)S(=O)(=O)Oc1ccccc1)CCc1ccccc1)[C@H](Cc1ccccc1)NC(=O)N1CCNCC1
pKi [1]: 6.72

CN1CCN(C(=O)N[C@@H](Cc2ccccc2)C(=O)N[C@H](/C=C(\F)S(=O)(=O)Oc2ccccc2)CCc2ccccc2)CC1
pKi [1]: 6.97
Activity [10]: Active

Cc1cccc(C[C@H](NC(=O)c2ccc3c(c2)OCCO3)C(=O)N[C@H](/C=C(\F)S(=O)(=O)Oc2ccccc2)CCc2ccccc2)c1
K [2]: 0.074 s⁻¹
K [3]: 0.015 s⁻¹
pKi [4]: 8.00
pKi [1]: 7.23
